Results: US20080287398A1, “COLD MENTHOL RECEPTOR-1 ANTAGONISTS” (priority 2007, published 2008)
Where “and” joins values, the source holds several entries; their conditions need not be identical. Identical values can stand only once. Like-named read-outs stand apart in the source and are kept apart here.

Target: T1, canine TRPM8 (Canis lupus familiaris, UniProt Q1A7N1)
T1 construct: expressed in transfected cells
Assay: In vitro canine TRPM8 functional assay (Ca2+-sensitive dye, FLIPR/FDSS, icilin activation)
Format: cell-based
Conditions: HEK293 cells expressing canine TRPM8, icilin activation; for % I (1 μM): 1 μM compound; for % I (0.5 μM): 0.5 μM compound; for IC50: eight-point dose-response
Method in brief: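 Icilin challenge (final concentration producing ~80% of maximal response) followed a 5 min compound exposure in canine TRPM8-HEK293 cells dye-loaded with Calcium 3. Intracellular Ca2+ was read on FLIPR/FDSS. EC50 and IC50 values came from nonlinear sigmoidal dose-response fits of basal-subtracted, percent-of-maximum data averaged over quadruplicates.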

[1] = HEK293, read-out: % I (1 μM), 1 μM compound
[2] = HEK293, 1 μM compound, read-out: % I (1 μM)

T1 sequence (Q1A7N1 1-1104): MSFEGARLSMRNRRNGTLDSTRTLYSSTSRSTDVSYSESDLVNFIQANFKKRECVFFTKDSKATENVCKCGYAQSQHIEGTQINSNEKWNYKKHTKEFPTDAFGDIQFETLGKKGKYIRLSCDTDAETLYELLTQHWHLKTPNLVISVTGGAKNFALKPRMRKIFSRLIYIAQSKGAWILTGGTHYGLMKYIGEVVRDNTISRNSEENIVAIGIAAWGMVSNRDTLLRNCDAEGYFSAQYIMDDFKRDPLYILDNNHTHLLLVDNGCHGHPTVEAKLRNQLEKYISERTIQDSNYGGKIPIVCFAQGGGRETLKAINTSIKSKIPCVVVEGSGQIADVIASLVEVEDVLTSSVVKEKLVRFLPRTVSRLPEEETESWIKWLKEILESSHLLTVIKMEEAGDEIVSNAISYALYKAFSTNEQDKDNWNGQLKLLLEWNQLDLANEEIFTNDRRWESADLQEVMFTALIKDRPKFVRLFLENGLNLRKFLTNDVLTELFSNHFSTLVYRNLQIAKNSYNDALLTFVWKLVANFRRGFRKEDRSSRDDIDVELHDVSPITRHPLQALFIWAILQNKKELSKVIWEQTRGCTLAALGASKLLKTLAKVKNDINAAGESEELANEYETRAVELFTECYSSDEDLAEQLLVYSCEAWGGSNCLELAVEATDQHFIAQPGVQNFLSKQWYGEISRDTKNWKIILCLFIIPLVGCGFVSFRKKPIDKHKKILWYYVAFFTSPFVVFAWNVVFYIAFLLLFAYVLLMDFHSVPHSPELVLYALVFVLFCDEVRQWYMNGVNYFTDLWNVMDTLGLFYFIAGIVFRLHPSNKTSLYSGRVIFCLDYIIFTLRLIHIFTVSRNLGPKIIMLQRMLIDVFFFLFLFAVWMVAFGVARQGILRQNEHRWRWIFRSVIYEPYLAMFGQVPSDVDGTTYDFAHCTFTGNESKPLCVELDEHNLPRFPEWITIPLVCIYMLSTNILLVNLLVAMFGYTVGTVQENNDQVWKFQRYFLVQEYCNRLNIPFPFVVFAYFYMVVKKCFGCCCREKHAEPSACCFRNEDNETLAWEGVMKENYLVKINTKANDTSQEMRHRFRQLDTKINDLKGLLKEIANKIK

Row | Molecule | % I (0.5 μM) | IC50 (read-out: IC50) | further results
1 | CCOP(=O)(OCC)C(Cc1ccc(F)c(F)c1)c1c(C)c2ccccc2[s+]1[O-] (stereo not drawn) [Cpd 118] |  |  | % I (1 μM): 23%
2 | CCOP(=O)(OCC)C(Cc1cccc(OC(F)(F)F)c1)c1sc2ccccc2c1Cl (stereo not drawn) [Cpd 270] | 102% | 0.202 µM | 
3 | CCOP(=O)(OCC)C(Cc1cccc(Cl)c1)c1sc2ccccc2c1Cl (racemic) [Cpd 290] | 103% | 0.115 µM | 
4 | CCOP(=O)(OCC)C(Cc1cccc(-c2ccncc2)c1)c1sc2ccccc2c1C (stereo not drawn) [Cpd 72, [1-(3-Methyl-benzo[b]thiophen-2-yl)-2-(3-pyridin-4-yl-phenyl)-ethyl]-phosphonic acid diethyl ester] |  |  | inhibition at 1 µM [1]: 99%; IC50 (IC50 (μM)): 0.36 µM
5 | CC(C)OP(=O)(OC(C)C)C(Cc1ccc(S(C)(=O)=O)cc1)c1sc2ccccc2c1Br (stereo not drawn) [Cpd 252] | 44% |  | 
6 | CC(C)OP(=O)(OC(C)C)C(Cc1cc(F)cc(C(F)(F)F)c1)c1sc2ccccc2c1Cl (racemic) [Cpd 169] | 104% | 0.096 µM | 
7 | CCOP(=O)(OCC)C(Cc1ccccc1C(F)(F)F)c1sc2ccccc2c1C (stereo not drawn) [Cpd 59] |  | 0.27 µM | % I (1 μM): 99%
8 | [2-(3,4-Difluoro-phenyl)-1-(3-methyl-benzo[b]thiophene-2-yl)-ethyl]-[3-(4-methoxy-phenyl)-propyl]-phosphonic acid ethyl ester [Cpd 136] |  | 0.42 µM | % I (1 μM): 91%
9 | CCOP(=O)(OCC)C(Cc1ccc(F)c(F)c1)c1oc2ccccc2c1Br (stereo not drawn) [Cpd 266] |  | 0.051 µM | % I (1 μM): 103%
10 | CCOP(=O)(OCC)C(Cc1ccc(F)c(F)c1)C1=C(C)c2ccccc2S1(=O)=O (stereo not drawn) [Cpd 88, [2-(3,4-Difluoro-phenyl)-1-(3-methyl-1,1-dioxo-1H-1λ^6-benzo-[b]thiophen-2-yl)-ethyl]-phosphonic acid diethyl ester] |  |  | inhibition at 1 µM [1]: 80%; IC50 (IC50 (μM)): 0.5 µM and 0.54 µM
11 | CCOP(=O)(OCC)C(Cc1ccc(F)c(C(F)(F)F)c1)c1sc2ccccc2c1Cl (racemic) [Cpd 294] | 103% | 0.118 µM | 
12 | CC(C)OP(=O)(OC(C)C)C(Cc1ccc(C(F)(F)F)cc1F)c1sc2ccccc2c1Br (racemic) [Cpd 289] | 103% | 0.051 µM | 
13 | CCOP(=O)(OCCN(C)C)C(Cc1ccc(F)c(F)c1)c1sc2ccccc2c1C (stereo not drawn) [Cpd 103, [2-(3,4-Difluoro-phenyl)-1-(3-methyl-benzo[b]thiophen-2-yl)-ethyl]-phosphonic acid 2-dimethylamino-ethyl ester ethyl ester] |  |  | inhibition at 1 µM [1]: 60%; IC50 (IC50 (μM)): 0.93 µM
14 | CC(C)OP(=O)(OC(C)C)C(Cc1cccc(SC(F)(F)F)c1)c1sc2ccccc2c1Cl (stereo not drawn) [Cpd 255] | 103% | 0.058 µM | 
15 | CC(C)OP(=O)(OC(C)C)C(Cc1cccc(SC(F)(F)F)c1)c1sc2ccccc2c1Br (stereo not drawn) [Cpd 250] | 103% | 0.048 µM | 
16 | CC(C)OP(=O)(OC(C)C)C(Cc1cccc(O)c1F)c1sc2ccccc2c1Br (racemic) [Cpd 230] | 97% | 0.01 µM | 
17 | CCOP(=O)(OCC)C(Cc1cc(C(F)(F)F)cc(C(F)(F)F)c1)c1cc2ccccc2s1 (stereo not drawn) [Cpd 96] |  | 0.64 µM | % I (1 μM): 92%
18 | CC(C)OP(=O)(OC(C)C)C(Cc1ccc(S(=O)(=O)C(F)(F)F)cc1)c1sc2ccccc2c1Br (stereo not drawn) [Cpd 263] | 103% | 0.022 µM | 
19 | CCOP(=O)(OCC)C(Cc1ccc(F)c(F)c1)c1sc2ccc(F)cc2c1C (stereo not drawn) [Cpd 45, [2-(3,4-Difluoro-phenyl)-1-(5-fluoro-3-methyl-benzo[b]thiophene-2-yl)-ethyl]-phosphonic acid diethyl ester] |  |  | inhibition at 1 µM [1]: 100%; IC50 (IC50 (μM)): 0.164 µM
20 | CC(C)OP(=O)(OC(C)C)C(Cc1ccc(F)c(F)c1)c1cc2ccccc2s1 (stereo not drawn) [Cpd 63, [1-Benzo[b]thiophen-2-yl-2-(3,4-difluoro-phenyl)-ethyl]-phosphonic acid diisopropyl ester] |  | 0.3 µM | inhibition at 1 µM [2]: 100%
21 | CCOP(=O)(OCC)C(Cc1cccc(C(F)(F)F)c1F)c1sc2ccccc2c1Cl (racemic) [Cpd 281] | 102% | 0.131 µM | 

Row | Molecule | % I (0.5 μM) | IC50 (read-out: IC50) | further results
22 | CCOP(=O)(OCC)C(Cc1cccc(C(F)(F)F)c1F)c1sc2ccccc2c1C (stereo not drawn) [Cpd 37] |  | 0.127 µM | % I (1 μM): 100%
23 | CCOP(=O)(OCC)C(Cc1ccc(F)c(F)c1)c1cc2ccccc2o1 (stereo not drawn) [Cpd 265] |  | 0.409 µM | % I (1 μM): 95%
24 | CC(C)OP(=O)(OC(C)C)C(Cc1cc(C(F)(F)F)cc(Cl)c1F)c1cc2ccccc2s1 (stereo not drawn) [Cpd 126] |  | 0.41 µM | % I (1 μM): 100%
25 | COc1ccc(CC(c2sc3ccccc3c2Cl)P(=O)(OC(C)C)OC(C)C)cc1C(F)(F)F (stereo not drawn) [Cpd 176] | 104% | 0.131 µM | 
26 | CC(C)OP(=O)(OC(C)C)C(Cc1cc(C(F)(F)F)cc(C(F)(F)F)c1)c1sc2ccccc2c1Cl (racemic) [Cpd 171] | 95% | 0.221 µM | 
27 | CC(C)OP(=O)(OC(C)C)C(Br)(Cc1ccc(F)c(F)c1)c1sc2ccccc2c1Br (stereo not drawn) [Cpd 93, [1-Bromo-1-(3-bromo-benzo[b]thiophen-2-yl)-2-(3,4-difluoro-phenyl)-ethyl]-phosphonic acid diisopropyl ester] |  | 0.58 µM | inhibition at 1 µM [2]: 80%
28 | CCOP(=O)(OCC)C(Cc1ccc(O)c(F)c1)c1sc2ccccc2c1Br (racemic) [Cpd 226] | 34% |  | 
29 | CCOP(=O)(OCC)C(Cc1cccc(C#N)c1)c1sc2ccccc2c1Br (stereo not drawn) [Cpd 309] | 103% | 0.088 µM | 
30 | CCOP(=O)(OCC)C(Cc1ccccc1OC)c1sc2ccccc2c1Br (stereo not drawn) [Cpd 320] | 103% | 0.028 µM | 
31 | CCOP(=O)(OCC)C(Cc1cc(F)cc(C(F)(F)F)c1)c1sc2ccccc2c1C (stereo not drawn) [Cpd 56] |  | 0.24 µM | % I (1 μM): 103%
32 | CCOP(=O)(OCC)C(Cc1cccc(Br)c1)c1sc2ccccc2c1Br (racemic) [Cpd 295] | 102% and 103% | 0.031 µM and 0.016 µM | 
33 | CCOP(=O)(OCC)C(Cc1ccc(SC(F)(F)F)cc1)c1sc2ccccc2c1Br (racemic) [Cpd 153] | 103% | 0.043 µM | 
34 | CCOP(=O)(OCC)C(Cc1cc(OC)c(Cl)cc1F)c1sc2ccccc2c1Br (racemic) [Cpd 164] | 94% | 0.082 µM | 
35 | CCOP(=O)(OCC)C(Cc1ccc(F)cc1Cl)c1sc2ccccc2c1C (stereo not drawn) [Cpd 27] |  | 0.11 µM | % I (1 μM): 99%
36 | CCOP(=O)(OCC)C(Cc1ccc(OC)c(C(F)(F)F)c1)c1sc2ccccc2c1Br (racemic) [Cpd 152] | 102% and 92% | 0.054 µM and 0.05 µM | 
37 | CC(C)OP(=O)(OC(C)C)C(Cc1ccccc1F)c1sc2cc(Br)ccc2c1Br (stereo not drawn) [Cpd 199] |  |  | % I (1 μM): 81%
38 | CCCCOP(=O)(OCCCC)C(Cc1ccc(F)c(F)c1)c1sc2ccccc2c1Br (stereo not drawn) [Cpd 209, [1-(3-Bromo-benzo[b]thiophen-2-yl)-2-(3,4-difluoro-phenyl)-ethyl]-phosphonic acid dibutyl ester] |  | 0.071 µM | inhibition at 0.5 µM (HEK293, 0.5 μM compound, read-out: % I (0.5 μM)): 104%
39 | CCOP(=O)(OCC)C(Cc1ccc(Cl)c(C(F)(F)F)c1)c1sc2ccccc2c1Br (stereo not drawn) [Cpd 139] | 102% | 0.06 µM | 
40 | CC(C)OP(=O)(OC(C)C)C(Cc1ccc(F)c(Cl)c1)c1sc2ccccc2c1Br (racemic) [Cpd 248] | 104% | 0.021 µM | 
41 | CCOP(=O)(OCC)C(Cc1ccccc1C)c1sc2ccccc2c1C (stereo not drawn) [Cpd 26] |  | 0.108 µM | % I (1 μM): 100%
